Active and inactive are the calls of the source. The rule behind the calls is not given here.
Assays:
Mus musculus [1] = assay: Anticonvulsant activity in Mus musculus NMRI (mouse) assessed as protection against pentylenetetrazole-induced seizures at 5 to 20 mg/kg, ip administered 30 min prior to pentylenetetrazole induction relative to vehicle-treated control; format: functional, organism-based
Mus musculus [2] = assay: Anticonvulsant activity in Mus musculus NMRI (mouse) assessed as protection against pentylenetetrazole-induced seizures at 20 mg/kg, ip administered 30 min prior to pentylenetetrazole induction relative to vehicle-treated control; format: functional, organism-based; set-up: dose 20 mg/kg

SMILES	Activity (Mus musculus [1])	Activity (Mus musculus [2])
CCc1nc(C2C(C(=O)OCc3ccccc3)=C(C)NC(C)=C2C(=O)OCc2ccccc2)c(Cl)[nH]1	Active	–
CCOC(=O)C1=C(C)NC(C)=C(C(=O)OCCc2ccccc2)C1c1nc(CC)[nH]c1Cl (stereo not drawn)	Active	–
COC(=O)C1=C(C)NC(C)=C(C(=O)OC)C1c1ccccc1[N+](=O)[O-]	–	Active
CCc1nc(C2C(C(=O)OCCc3ccccc3)=C(C)NC(C)=C2C(=O)OCCc2ccccc2)c(Cl)[nH]1	Active	–
CC1=C(C(=O)OCCCc2ccccc2)C(c2nc[nH]c2Cl)C(C(=O)OCCCc2ccccc2)=C(C)N1	Active	–
CC1=C(C(=O)OCc2ccccc2)C(c2nc[nH]c2Cl)C(C(=O)OCc2ccccc2)=C(C)N1	Active	–
CC1=C(C(=O)OCCc2ccccc2)C(c2nc[nH]c2Cl)C(C(=O)OCCc2ccccc2)=C(C)N1	Active	–
CCc1nc(C2C(C(=O)OC)=C(C)NC(C)=C2C(=O)OCCc2ccccc2)c(Cl)[nH]1 (stereo not drawn)	Active	–

From ChEMBL document CHEMBL3044700, “Molecular modeling and protection against pentylenetetrazole-induced seizure of new 1,4-dihydropyridines containing 5(4)-imidazolyl substituent” (Med Chem Res, 2012)
